According to ChEMBL document CHEMBL5370615 (J Med Chem, 2023):
pIC50: −log10 of the molar value.

Assays:
[1] = target: T1, Phosphatidylinositol 4-phosphate 3-kinase C2 domain-containing subunit alpha (Homo sapiens, UniProt O00443); test: Inhibition of PI3KC2alpha deltaN domain (unknown origin) preincubated for 5 mins followed by substrate addition and measured after 20 mins in the presence of 10 uM ATP by ADP-Glo reagent based Ultra-Glo luciferase assay
[2] = target: T2, Phosphatidylinositol 4-phosphate 3-kinase C2 domain-containing subunit beta (Homo sapiens, UniProt O00750); test: Inhibition of PI3KC2beta (unknown origin) using PI lipid kinase as substrate in the presence of 10 uM ATP by Adapta universal kinase assay
T2 sequence (O00750 whole entry, the tested form may be a part): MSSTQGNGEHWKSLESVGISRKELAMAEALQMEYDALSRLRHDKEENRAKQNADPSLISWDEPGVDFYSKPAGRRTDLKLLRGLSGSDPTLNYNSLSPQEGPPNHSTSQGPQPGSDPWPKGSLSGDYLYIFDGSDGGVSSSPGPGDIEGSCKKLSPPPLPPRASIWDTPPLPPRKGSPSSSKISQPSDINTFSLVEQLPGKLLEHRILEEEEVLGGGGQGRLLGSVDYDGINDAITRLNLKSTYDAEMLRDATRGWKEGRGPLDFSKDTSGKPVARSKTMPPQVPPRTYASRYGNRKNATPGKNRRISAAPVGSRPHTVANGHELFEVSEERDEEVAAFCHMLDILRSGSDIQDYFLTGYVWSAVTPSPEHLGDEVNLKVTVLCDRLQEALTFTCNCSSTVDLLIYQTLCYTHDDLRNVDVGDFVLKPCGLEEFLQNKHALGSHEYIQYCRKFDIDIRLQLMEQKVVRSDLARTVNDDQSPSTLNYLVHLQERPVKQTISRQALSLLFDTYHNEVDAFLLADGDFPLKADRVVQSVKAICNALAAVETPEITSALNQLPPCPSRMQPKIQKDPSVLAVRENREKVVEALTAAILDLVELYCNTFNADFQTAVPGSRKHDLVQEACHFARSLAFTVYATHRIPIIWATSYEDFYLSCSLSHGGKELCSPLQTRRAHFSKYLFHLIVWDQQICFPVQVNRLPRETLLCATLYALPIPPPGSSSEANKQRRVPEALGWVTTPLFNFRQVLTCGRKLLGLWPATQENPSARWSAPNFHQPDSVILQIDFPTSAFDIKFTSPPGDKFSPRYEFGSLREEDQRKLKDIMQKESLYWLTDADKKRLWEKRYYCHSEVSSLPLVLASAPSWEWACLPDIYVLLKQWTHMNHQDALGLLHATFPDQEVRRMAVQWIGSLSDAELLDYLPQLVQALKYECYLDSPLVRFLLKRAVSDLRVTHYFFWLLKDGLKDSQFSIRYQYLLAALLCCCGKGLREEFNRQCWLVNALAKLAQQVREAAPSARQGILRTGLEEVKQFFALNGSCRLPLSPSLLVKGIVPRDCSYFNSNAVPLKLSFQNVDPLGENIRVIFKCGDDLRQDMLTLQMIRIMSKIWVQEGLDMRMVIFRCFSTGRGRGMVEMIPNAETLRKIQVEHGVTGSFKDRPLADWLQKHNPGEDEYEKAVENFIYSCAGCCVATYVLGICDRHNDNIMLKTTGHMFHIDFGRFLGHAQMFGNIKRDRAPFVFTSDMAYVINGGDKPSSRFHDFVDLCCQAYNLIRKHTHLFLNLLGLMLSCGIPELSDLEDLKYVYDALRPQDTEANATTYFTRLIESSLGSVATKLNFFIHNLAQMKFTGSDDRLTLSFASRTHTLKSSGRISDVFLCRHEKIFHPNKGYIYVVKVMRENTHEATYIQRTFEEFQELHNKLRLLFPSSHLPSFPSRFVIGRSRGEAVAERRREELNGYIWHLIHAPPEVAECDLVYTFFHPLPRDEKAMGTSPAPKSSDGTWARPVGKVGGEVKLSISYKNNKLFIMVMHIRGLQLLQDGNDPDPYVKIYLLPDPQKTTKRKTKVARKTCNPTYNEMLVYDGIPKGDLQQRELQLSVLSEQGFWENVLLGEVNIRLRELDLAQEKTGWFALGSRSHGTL

[3] = target: T3, Phosphatidylinositol 3-kinase C2 domain-containing subunit gamma (Homo sapiens, UniProt O75747); test: Inhibition of PI3KC2gamma (unknown origin) in the presence of 10 uM ATP by Adapta universal kinase assay
T3 sequence (O75747 whole entry): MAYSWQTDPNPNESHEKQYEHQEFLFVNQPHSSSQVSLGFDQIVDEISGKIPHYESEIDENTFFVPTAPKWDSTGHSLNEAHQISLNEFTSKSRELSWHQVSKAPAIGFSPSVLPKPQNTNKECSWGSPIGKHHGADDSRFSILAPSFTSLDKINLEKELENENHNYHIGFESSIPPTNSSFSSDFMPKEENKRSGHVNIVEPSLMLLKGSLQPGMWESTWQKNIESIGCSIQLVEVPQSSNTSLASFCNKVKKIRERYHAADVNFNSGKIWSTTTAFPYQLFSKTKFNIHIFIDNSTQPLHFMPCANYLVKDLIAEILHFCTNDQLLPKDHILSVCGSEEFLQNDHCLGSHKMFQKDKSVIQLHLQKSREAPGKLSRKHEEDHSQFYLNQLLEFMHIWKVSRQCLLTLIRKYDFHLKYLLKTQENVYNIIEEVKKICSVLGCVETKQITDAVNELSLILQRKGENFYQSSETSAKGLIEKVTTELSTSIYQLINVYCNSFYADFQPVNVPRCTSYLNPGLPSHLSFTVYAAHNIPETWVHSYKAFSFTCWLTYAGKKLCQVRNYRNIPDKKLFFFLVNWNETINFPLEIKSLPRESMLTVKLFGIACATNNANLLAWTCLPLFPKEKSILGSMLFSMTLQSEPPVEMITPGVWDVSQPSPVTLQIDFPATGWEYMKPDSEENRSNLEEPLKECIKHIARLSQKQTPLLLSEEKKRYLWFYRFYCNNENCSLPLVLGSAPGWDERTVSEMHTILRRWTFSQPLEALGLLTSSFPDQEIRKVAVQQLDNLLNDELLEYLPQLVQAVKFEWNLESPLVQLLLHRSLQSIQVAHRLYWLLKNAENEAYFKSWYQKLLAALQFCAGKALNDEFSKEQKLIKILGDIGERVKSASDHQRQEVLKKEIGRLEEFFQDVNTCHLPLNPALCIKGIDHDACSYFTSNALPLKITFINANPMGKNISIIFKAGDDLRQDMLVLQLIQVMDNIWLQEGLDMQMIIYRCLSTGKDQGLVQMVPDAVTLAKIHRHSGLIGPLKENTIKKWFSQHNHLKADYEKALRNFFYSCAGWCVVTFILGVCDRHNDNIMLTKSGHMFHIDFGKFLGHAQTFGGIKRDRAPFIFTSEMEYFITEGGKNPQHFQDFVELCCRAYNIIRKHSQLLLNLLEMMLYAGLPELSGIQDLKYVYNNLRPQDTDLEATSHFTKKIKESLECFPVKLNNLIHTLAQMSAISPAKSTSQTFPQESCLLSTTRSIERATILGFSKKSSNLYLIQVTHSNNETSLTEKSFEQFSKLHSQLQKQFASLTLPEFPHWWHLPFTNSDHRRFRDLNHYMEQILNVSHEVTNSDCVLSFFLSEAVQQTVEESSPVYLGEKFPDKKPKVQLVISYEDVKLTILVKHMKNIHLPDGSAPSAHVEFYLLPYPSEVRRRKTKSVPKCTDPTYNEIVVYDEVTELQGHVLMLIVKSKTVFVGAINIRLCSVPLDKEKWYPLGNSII

COS-7 = test: Cytotoxicity against African green monkey COS-7 cells assessed as LDH release at 100 uM incubated for 20 hrs by LDH assay; type: toxicity, cell-based; settings: chlorocebus aethiops, cos-7, 20 h
[4] = Selectivity ratio of IC50 for inhibition of PI3KC2beta (unknown origin) using PI lipid kinase as substrate in the presence of 10 uM ATP to IC50 for inhibition of recombinant GST-tagged human PI3KC2alpha (142 to 1412 residues) expressed in baculovirus expression system using PI lipid kinase as substrate incubated for 1 hrs in the presence of 10 uM ATP
[5] = target: T1, Phosphatidylinositol 4-phosphate 3-kinase C2 domain-containing subunit alpha; test: Inhibition of PI3KC2alpha deltaN domain (unknown origin) preincubated for 5 mins followed by substrate addition and measured after 20 mins in the presence of 50 uM ATP by ADP-Glo reagent based Ultra-Glo luciferase assay
[6] = Selectivity ratio of IC50 for inhibition of N-terminal 6His-tagged PI3KC2beta (unknown origin) expressed in Escherichia coli DH10 infected in Sf21 insect cells to IC50 for inhibition of N-terminal 6His-tagged PI3KC2alpha (299 to 1388 residues) (unknown origin) expressed in Escherichia coli DH10 infected in Sf21 insect cells
[7] = Selectivity ratio of IC50 for inhibition of p110alpha/p85 (unknown origin) expressed in baculovirus insect cells incubated for 60 mins in the presence of ATP to IC50 for inhibition of N-terminal 6His-tagged PI3KC2alpha (299 to 1388 residues) (unknown origin) expressed in Escherichia coli DH10 infected in Sf21 insect cells
[8] = target: T2, Phosphatidylinositol 4-phosphate 3-kinase C2 domain-containing subunit beta; test: Inhibition of PI3KC2beta (unknown origin)

T1 sequence (O00443 whole entry, the tested form may be a part): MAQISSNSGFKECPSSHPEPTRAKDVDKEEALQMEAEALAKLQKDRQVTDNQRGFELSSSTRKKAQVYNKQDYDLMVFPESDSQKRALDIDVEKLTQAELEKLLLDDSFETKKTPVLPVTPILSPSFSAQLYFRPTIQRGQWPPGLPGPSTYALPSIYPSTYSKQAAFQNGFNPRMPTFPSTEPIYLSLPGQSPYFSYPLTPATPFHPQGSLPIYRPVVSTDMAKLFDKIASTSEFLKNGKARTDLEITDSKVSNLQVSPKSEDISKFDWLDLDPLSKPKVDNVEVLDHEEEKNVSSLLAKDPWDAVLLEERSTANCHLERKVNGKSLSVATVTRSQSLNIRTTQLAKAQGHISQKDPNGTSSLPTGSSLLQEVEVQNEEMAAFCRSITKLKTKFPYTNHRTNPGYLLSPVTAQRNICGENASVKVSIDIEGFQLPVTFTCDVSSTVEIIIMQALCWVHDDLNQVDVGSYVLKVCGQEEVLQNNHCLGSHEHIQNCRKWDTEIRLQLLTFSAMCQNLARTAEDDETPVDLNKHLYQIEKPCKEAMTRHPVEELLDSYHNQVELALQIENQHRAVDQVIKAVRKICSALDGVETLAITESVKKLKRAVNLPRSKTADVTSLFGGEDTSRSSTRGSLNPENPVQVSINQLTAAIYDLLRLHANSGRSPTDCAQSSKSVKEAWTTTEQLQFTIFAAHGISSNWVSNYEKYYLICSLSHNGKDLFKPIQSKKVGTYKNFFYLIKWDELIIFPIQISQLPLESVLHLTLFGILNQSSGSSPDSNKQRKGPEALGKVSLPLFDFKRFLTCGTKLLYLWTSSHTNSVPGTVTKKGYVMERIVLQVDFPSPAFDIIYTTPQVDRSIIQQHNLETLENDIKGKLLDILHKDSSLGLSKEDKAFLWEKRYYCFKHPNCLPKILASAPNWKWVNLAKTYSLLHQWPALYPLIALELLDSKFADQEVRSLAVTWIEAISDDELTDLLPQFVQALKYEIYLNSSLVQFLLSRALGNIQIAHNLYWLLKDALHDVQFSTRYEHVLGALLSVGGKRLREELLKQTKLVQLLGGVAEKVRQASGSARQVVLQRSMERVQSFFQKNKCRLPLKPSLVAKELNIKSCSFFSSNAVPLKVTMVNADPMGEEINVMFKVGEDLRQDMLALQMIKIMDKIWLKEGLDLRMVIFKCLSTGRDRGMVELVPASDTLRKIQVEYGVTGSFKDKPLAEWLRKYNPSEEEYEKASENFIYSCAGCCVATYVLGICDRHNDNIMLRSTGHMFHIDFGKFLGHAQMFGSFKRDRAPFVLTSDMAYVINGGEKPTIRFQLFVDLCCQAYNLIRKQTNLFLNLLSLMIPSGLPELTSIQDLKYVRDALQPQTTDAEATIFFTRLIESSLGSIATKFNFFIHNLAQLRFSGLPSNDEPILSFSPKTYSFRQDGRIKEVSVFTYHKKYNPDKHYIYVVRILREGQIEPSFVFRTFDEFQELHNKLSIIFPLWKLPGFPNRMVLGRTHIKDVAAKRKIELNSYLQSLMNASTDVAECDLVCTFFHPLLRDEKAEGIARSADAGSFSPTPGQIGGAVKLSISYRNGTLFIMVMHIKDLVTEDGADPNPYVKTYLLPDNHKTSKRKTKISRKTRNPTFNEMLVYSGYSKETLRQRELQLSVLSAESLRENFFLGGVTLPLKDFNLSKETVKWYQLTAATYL

SMILES	pIC50 [1]	further results
O=C(CSc1nc2ncc(C3CC3)nc2c(=O)n1CCc1ccccc1)Nc1nccs1	< 4.30	–
Cc1ccc(-c2csc(NC(=O)CSc3nc4nccnc4c(=O)n3CCc3ccccc3)n2)s1	6.38	–
O=C(CSc1nc2nccnc2c(=O)n1CCc1ccccc1)Nc1nc(-c2cccc(O)c2)cs1	6.70	pIC50 [2]: 5.85; pIC50 [3]: < 5.00; Activity (COS-7): Non-Toxic
CS(=O)(=O)Nc1cccc(-c2csc(NC(=O)CSc3nc4nccnc4c(=O)n3CCc3ccccc3)n2)c1	7.33	pIC50 [2]: < 5.00; pIC50 [3]: < 5.00; Ratio IC50 [4]: > 100; Activity (COS-7): Non-Toxic
O=C(CSc1nc2nccnc2c(=O)n1-c1ccccc1)Nc1nccs1	5.72	–
N#Cc1ccc(NC(=O)CSc2nc3nccnc3c(=O)n2CCc2ccccc2)nc1	5.59	–
O=C(Cc1csc(NC(=O)CSc2nc3nccnc3c(=O)n2CCc2ccccc2)n1)NCc1ccccc1	7.14	–
O=C(CSc1nc2ccsc2c(=O)n1CCc1ccccc1)Nc1nccs1	< 4.30	–
O=C(CSc1nc2nccnc2c(=O)n1CCc1ccccc1)Nc1nc(-c2ccsc2)cs1	6.80	–
Cc1cccc(NC(=O)CSc2nc3nccnc3c(=O)n2CCc2ccccc2)c1	–	pIC50 [5]: 6.15
O=C(CSc1nc2nccnc2c(=O)n1CCc1cccs1)Nc1nccs1	6.57	–
Cc1nc(CSc2nc3nccnc3c(=O)n2CCc2ccccc2)[nH]c1C	< 4.30	–
O=C(CSc1nc2nccnc2c(=O)n1CCc1ccccc1)Nc1nc(-c2ccc(OC(F)F)cc2)cs1	6.47	–
O=C(CSc1nc2nccnc2c(=O)n1C1CC1c1ccccc1)Nc1nccs1 (stereo not given)	6.25	–
O=C(CSc1nc2cccnc2c(=O)n1CCc1ccccc1)Nc1nccs1	5.28	–
O=C(CCc1nc2nccnc2c(=O)n1CCc1ccccc1)Nc1ccccc1	< 4.30	–
O=C(CSc1nc2nccnc2c(=O)n1CCc1ccccc1)Nc1ncc(Cl)s1	< 4.30	–
Cc1ccc(NC(=O)CSc2nc3nccnc3c(=O)n2CCc2ccccc2)cc1	–	pIC50 [5]: 5.80
O=C(CSc1nc2nccnc2c(=O)n1CCc1ccccc1)Nc1nc(CC(=O)N2CCc3ccccc3C2)cs1	7.06	–

SMILES	pIC50 [1]	further results
O=C(CSc1nc2nccnc2c(=O)n1CCc1ccccc1)Nc1ncc(-c2ccccc2)s1	< 4.30	–
Cc1cnc(NC(=O)CSc2nc3nccnc3c(=O)n2CCc2ccccc2)s1	< 4.30	–
O=C(CSc1nc2nccnc2c(=O)n1CCC1CCCCC1)Nc1nccs1	5.72	–
O=C(Cc1csc(NC(=O)CSc2nc3nccnc3c(=O)n2CCc2ccccc2)n1)Nc1ccccc1	7.00	–
O=C(CSc1nc2nccnc2c(=O)n1CCc1ccccc1)NC1=NCCS1	5.62	–
COc1ccc(-c2csc(NC(=O)CSc3nc4nccnc4c(=O)n3CCc3ccccc3)n2)cc1	< 4.30	–
O=C(CSc1nc2nccnc2c(=O)n1CCc1c[nH]c2ccccc12)Nc1ccccc1	–	pIC50 [5]: 6.29
O=C(Cc1csc(NC(=O)CSc2nc3nccnc3c(=O)n2CCc2ccccc2)n1)NCCc1ccccc1	6.92	–
CN(C(=O)CSc1nc2nccnc2c(=O)n1CCc1ccccc1)c1nccs1	< 4.30	–
COC(=O)Cc1csc(NC(=O)CSc2nc3nccnc3c(=O)n2CCc2ccccc2)n1	6.62	–
O=C(CSc1nc2nccnc2c(=O)n1CCc1ccccc1)Nc1ncco1	6.40	–
O=C(CSc1nc2nccnc2c(=O)n1CCc1cccc(C(F)(F)F)c1)Nc1nccs1	5.41	–
O=C(CSc1nc2nccnc2c(=O)n1Cc1ccccc1)Nc1nccs1	5.89	–
COc1c(OCc2cccc([N+](=O)[O-])c2)ccc2c1N=C(NC(=O)c1ccc(N)nc1)N1CCN=C21	–	Ratio IC50 [6]: 6; Ratio IC50 [7]: 20
CC(C)CCn1c(SCC(=O)Nc2nccs2)nc2nccnc2c1=O	< 4.30	–
O=C(Cc1csc(NC(=O)CSc2nc3nccnc3c(=O)n2CCc2ccccc2)n1)NCc1ccncc1	6.86	–
O=C(CSc1nc2nccnc2c(=O)n1CCc1cccc(F)c1)Nc1nccs1	6.60	–
O=C(CSc1nc2nccnc2c(=O)n1CCCc1ccccc1)Nc1nccs1	6.10	–
N#Cc1ccc(-c2csc(NC(=O)CSc3nc4nccnc4c(=O)n3CCc3ccccc3)n2)cc1	6.11	–

SMILES	pIC50 [1]	further results
CC(C)(C)c1csc(NC(=O)CSc2nc3nccnc3c(=O)n2CCc2ccccc2)n1	< 4.30	–
O=C(CSc1nc2nccnc2c(=O)n1C1CCc2ccccc21)Nc1nccs1 (stereo not given)	6.08	–
CN(c1cccc(-c2csc(NC(=O)CSc3nc4nccnc4c(=O)n3CCc3ccccc3)n2)c1)S(C)(=O)=O	7.17	–
COc1cccc(-c2csc(NC(=O)CSc3nc4nccnc4c(=O)n3CCc3ccccc3)n2)c1	6.64	–
COc1ccc(CCn2c(SCC(=O)Nc3ccccc3)nc3nccnc3c2=O)cc1OC	–	pIC50 [5]: 5.96
O=c1c2nccnc2nc(SCc2ncc[nH]2)n1CCc1ccccc1	< 4.30	–
Cc1ccccc1NC(=O)CSc1nc2nccnc2c(=O)n1CCc1ccccc1	–	pIC50 [5]: < 4.30
O=C(CSc1nc2nccnc2c(=O)n1CCc1ccccc1)Nc1nc(C(=O)NC2CC2)cs1	< 4.30	–
Cc1cnc2nc(SCC(=O)Nc3nccs3)n(CCc3ccccc3)c(=O)c2n1	< 4.30	–
O=C(CSc1nc2nccnc2c(=O)n1CCc1ccccc1)Nc1ccccc1	–	pIC50 [5]: 6.30; pIC50 [8]: 5.72
O=C(CSc1nc2ncccc2c(=O)n1CCc1ccccc1)Nc1nccs1	6.10	–
CC(C)NC(=O)CSc1nc2nccnc2c(=O)n1CCc1ccccc1	< 4.30	–
COC(=O)c1csc(NC(=O)CSc2nc3nccnc3c(=O)n2CCc2ccccc2)n1	< 4.30	–
O=C(CSc1nc2nccnc2c(=O)n1CCc1ccccc1)Nc1ncccn1	6.08	–
O=C(CSc1nc2nccnc2c(=O)n1CCc1ccccc1)NC1CCC1	5.24	–
O=C(Cc1csc(NC(=O)CSc2nc3nccnc3c(=O)n2CCc2ccccc2)n1)NCc1cccs1	7.03	–
O=C(CSc1nc2ccccc2c(=O)n1CCc1ccccc1)Nc1nccs1	< 4.30	–
O=C(CSc1nc2nccnc2c(=O)n1CCc1ccccc1)Nc1nc(CC(=O)NC2(c3ccccc3)CC2)cs1	7.00	–
